Source: patent US20210047304A1, “Bromodomain Inhibitors” (AbbVie Inc., priority 2016, published 2021)

Molecular target: BRD4 (BDI_K57-E168) (Homo sapiens, UniProt O60885)
Experiment: TR-FRET bromodomain binding assay, BRD4 BDI

Ki [µM]	SMILES
4	Cc1cc(F)cc(C)c1Oc1ccc(C(C)(C)O)cc1-c1cn(C)c(=O)cc1O[C@H]1CC[C@H](C(N)=O)CC1 [Example 102, trans-4-({5-[2-(4-fluoro-2,6-dimethylphenoxy)-5-(2-hydroxypropan-2-yl)phenyl]-1-methyl-2-oxo-1,2-dihydropyridin-4-yl}oxy)cyclohexane-1-carboxamide]
> 13	Cc1cc(F)cc(C)c1Oc1ccc(C(C)(C)O)cc1-c1cn(C)c(=O)cc1O[C@H]1CC[C@H](NC(=O)C2(CNC(=O)OC(C)(C)C)CC2)CC1 [Example 104, tert-butyl [(1-{[trans-4-({5-[2-(4-fluoro-2,6-dimethylphenoxy)-5-(2-hydroxypropan-2-yl)phenyl]-1-methyl-2-oxo-1,2-dihydropyridin-4-yl}oxy)cyclohexyl]carbamoyl}cyclopropyl)methyl]carbamate]
2.16	CC(=O)NN[C@H]1CC[C@H](Oc2cc(=O)n(C)cc2-c2cc(C(C)(C)O)ccc2Oc2c(C)cc(F)cc2C)CC1 [Example 105, N′-[trans-4-({5-[2-(4-fluoro-2,6-dimethylphenoxy)-5-(2-hydroxypropan-2-yl)phenyl]-1-methyl-2-oxo-1,2-dihydropyridin-4-yl}oxy)cyclohexyl]acetohydrazide]
3.41	Cc1cc(F)cc(C)c1Oc1ccc(C(C)(C)O)cc1-c1cn(C)c(=O)cc1O[C@H]1CC[C@H](NNC(=O)OC(C)(C)C)CC1 [Example 106, tert-butyl 2-[trans-4-({5-[2-(4-fluoro-2,6-dimethylphenoxy)-5-(2-hydroxypropan-2-yl)phenyl]-1-methyl-2-oxo-1,2-dihydropyridin-4-yl}oxy)cyclohexyl]hydrazine-1-carboxylate]
1.79	Cc1cc(F)cc(C)c1Oc1ccc(C(C)(C)O)cc1-c1cn(C)c(=O)cc1O[C@H]1CC[C@@H](NNC(=O)OC(C)(C)C)CC1 [Example 107, tert-butyl 2-[cis-4-({5-[2-(4-fluoro-2,6-dimethylphenoxy)-5-(2-hydroxypropan-2-yl)phenyl]-1-methyl-2-oxo-1,2-dihydropyridin-4-yl}oxy)cyclohexyl]hydrazine-1-carboxylate]
5.44	Cc1cc(F)cc(C)c1Oc1ccc(C(C)(C)O)cc1-c1cn(C)c(=O)cc1O[C@H]1CC[C@H](C(=O)N(C)C)CC1 [Example 108, trans-4-({5-[2-(4-fluoro-2,6-dimethylphenoxy)-5-(2-hydroxypropan-2-yl)phenyl]-1-methyl-2-oxo-1,2-dihydropyridin-4-yl}oxy)-N,N-dimethylcyclohexane-1-carboxamide]
> 13	Cc1cc(F)cc(C)c1Oc1ccc(C(C)(C)O)cc1-c1cn(C)c(=O)cc1O[C@H]1CC[C@H](N2NCCC2=O)CC1 [Example 109, 5-[2-(4-fluoro-2,6-dimethylphenoxy)-5-(2-hydroxypropan-2-yl)phenyl]-1-methyl-4-{[trans-4-(5-oxopyrazolidin-1-yl)cyclohexyl]oxy}pyridin-2(1H)-one]
1.19	Cc1cc(F)cc(C)c1Oc1ccc(C(C)(C)O)cc1-c1cn(C)c(=O)cc1O[C@H]1CC[C@H](NC(=O)C2(C(N)=O)CC2)CC1 [Example 111, N-[trans-4-({5-[2-(4-fluoro-2,6-dimethylphenoxy)-5-(2-hydroxypropan-2-yl)phenyl]-1-methyl-2-oxo-1,2-dihydropyridin-4-yl}oxy)cyclohexyl]cyclopropane-1,1-dicarboxamide]
4.86	CC(=O)N1CCC(=O)N1[C@H]1CC[C@H](Oc2cc(=O)n(C)cc2-c2cc(C(C)(C)O)ccc2Oc2c(C)cc(F)cc2C)CC1 [Example 112, 4-{[trans-4-(2-acetyl-5-oxopyrazolidin-1-yl)cyclohexyl]oxy}-5-[2-(4-fluoro-2,6-dimethylphenoxy)-5-(2-hydroxypropan-2-yl)phenyl]-1-methylpyridin-2(1H)-one]
6.06	CNC(=O)N(C)Cc1ccc(Oc2c(C)cccc2C)c(-c2cn(C)c(=O)cc2O[C@H]2CC[C@H](NC(=O)C3(C)CC3)CC2)c1 [Example 113, N-[trans-4-({5-[2-(2,6-dimethylphenoxy)-5-{[methyl(methylcarbamoyl)amino]methyl}phenyl]-1-methyl-2-oxo-1,2-dihydropyridin-4-yl}oxy)cyclohexyl]-1-methylcyclopropane-1-carboxamide]
4.66	Cc1cc(F)cc(C)c1Oc1ccc(C(C)(C)O)cc1-c1cn(C)c(=O)cc1O[C@H]1CC[C@H](n2nccc2O)CC1 [Example 114, 5-[2-(4-fluoro-2,6-dimethylphenoxy)-5-(2-hydroxypropan-2-yl)phenyl]-4-{[trans-4-(5-hydroxy-1H-pyrazol-1-yl)cyclohexyl]oxy}-1-methylpyridin-2(1H)-one]
2.92	Cc1cccc(C)c1Oc1ccc(CN(C)C(N)=O)cc1-c1cn(C)c(=O)cc1O[C@H]1CC[C@H](NC(=O)C2(C)CC2)CC1 [Example 115, N-[trans-4-({5-[5-{[carbamoyl(methyl)amino]methyl}-2-(2,6-dimethylphenoxy)phenyl]-1-methyl-2-oxo-1,2-dihydropyridin-4-yl}oxy)cyclohexyl]-1-methylcyclopropane-1-carboxamide]

The remaining lines, values behind:

SMILES	Ki [µM]
Cc1cc(F)cc(C)c1Oc1ccc(C(C)(C)O)cc1-c1cn(C)c(=O)cc1O[C@H]1CC[C@H](N2C(=O)CCC(C)(C)C2=O)CC1 [Example 89, 1-[trans-4-({5-[2-(4-fluoro-2,6-dimethylphenoxy)-5-(2-hydroxypropan-2-yl)phenyl]-1-methyl-2-oxo-1,2-dihydropyridin-4-yl}oxy)cyclohexyl]-3,3-dimethylpiperidine-2,6-dione]	> 13
Cc1cc(F)cc(C)c1Oc1ccc(C(C)(C)O)cc1-c1cn(C)c(=O)cc1O[C@H]1CC[C@H](N2C(=O)CC(C)(C)C2=O)CC1 [Example 90, 1-[trans-4-({5-[2-(4-fluoro-2,6-dimethylphenoxy)-5-(2-hydroxypropan-2-yl)phenyl]-1-methyl-2-oxo-1,2-dihydropyridin-4-yl}oxy)cyclohexyl]-3,3-dimethylpyrrolidine-2,5-dione]	11.5
Cc1cc(F)cc(C)c1Oc1ccc(C(C)(C)O)cc1-c1cn(C)c(=O)cc1O[C@H]1CC[C@H](N2C(=O)[C@@H]3CCCN3C2=O)CC1 [Example 91, (7aS)-2-[trans-4-({5-[2-(4-fluoro-2,6-dimethylphenoxy)-5-(2-hydroxypropan-2-yl)phenyl]-1-methyl-2-oxo-1,2-dihydropyridin-4-yl}oxy)cyclohexyl]tetrahydro-1H-pyrrolo[1,2-c]imidazole-1,3(2H)-dione]	5.86
Cc1cc(F)cc(C)c1Oc1ccc(C(C)(C)O)cc1-c1cn(C)c(=O)cc1O[C@H]1CC[C@H](N2C(=O)O[C@@H](C)C2=O)CC1 [Example 92, (5S)-3-[trans-4-({5-[2-(4-fluoro-2,6-dimethylphenoxy)-5-(2-hydroxypropan-2-yl)phenyl]-1-methyl-2-oxo-1,2-dihydropyridin-4-yl}oxy)cyclohexyl]-5-methyl-1,3-oxazolidine-2,4-dione]	> 13
Cc1cc(F)cc(C)c1Oc1ccc(C(C)(C)O)cc1-c1cn(C)c(=O)cc1O[C@H]1C[C@@H](C(C)(C)O)C1 [Example 94, 5-[2-(4-fluoro-2,6-dimethylphenoxy)-5-(2-hydroxypropan-2-yl)phenyl]-4-{[cis-3-(2-hydroxypropan-2-yl)cyclobutyl]oxy}-1-methylpyridin-2(1H)-one]	1.67
CCNC(=O)[C@H]1C[C@@H](Oc2cc(=O)n(C)cc2-c2cc(C(C)(C)O)ccc2Oc2c(C)cc(F)cc2C)C1 [Example 95, cis-N-ethyl-3-({5-[2-(4-fluoro-2,6-dimethylphenoxy)-5-(2-hydroxypropan-2-yl)phenyl]-1-methyl-2-oxo-1,2-dihydropyridin-4-yl}oxy)cyclobutane-1-carboxamide]	1.58
Cc1cc(F)cc(C)c1Oc1ccc(C(C)(C)O)cc1-c1cn(C)c(=O)cc1O[C@H]1C[C@@H](C(=O)N2CCCC2)C1 [Example 96, 5-[2-(4-fluoro-2,6-dimethylphenoxy)-5-(2-hydroxypropan-2-yl)phenyl]-1-methyl-4-{[cis-3-(pyrrolidine-1-carbonyl)cyclobutyl]oxy}pyridin-2(1H)-one]	2.2
Cc1cc(F)cc(C)c1Oc1ccc(C(C)(C)O)cc1-c1cn(C)c(=O)cc1O[C@H]1C[C@@H](C(=O)O)C1 [Example 97, cis-3-({5-[2-(4-fluoro-2,6-dimethylphenoxy)-5-(2-hydroxypropan-2-yl)phenyl]-1-methyl-2-oxo-1,2-dihydropyridin-4-yl}oxy)cyclobutane-1-carboxylic acid]	9.53
CC(=O)N(N)[C@H]1CC[C@H](Oc2cc(=O)n(C)cc2-c2cc(C(C)(C)O)ccc2Oc2c(C)cc(F)cc2C)CC1 [Example 98, N-[trans-4-({5-[2-(4-fluoro-2,6-dimethylphenoxy)-5-(2-hydroxypropan-2-yl)phenyl]-1-methyl-2-oxo-1,2-dihydropyridin-4-yl}oxy)cyclohexyl]acetohydrazide]	1.14
CC(=O)NN[C@H]1CC[C@@H](Oc2cc(=O)n(C)cc2-c2cc(C(C)(C)O)ccc2Oc2c(C)cc(F)cc2C)CC1 [Example 99, N′-[cis-4-({5-[2-(4-fluoro-2,6-dimethylphenoxy)-5-(2-hydroxypropan-2-yl)phenyl]-1-methyl-2-oxo-1,2-dihydropyridin-4-yl}oxy)cyclohexyl]acetohydrazide]	10.4
CC(=O)N[C@H]1C[C@H](Oc2cc(=O)n(C)cc2-c2cc(C(C)(C)O)ccc2Oc2c(C)cc(F)cc2C)C1 [Example 100, N-[trans-3-({5-[2-(4-fluoro-2,6-dimethylphenoxy)-5-(2-hydroxypropan-2-yl)phenyl]-1-methyl-2-oxo-1,2-dihydropyridin-4-yl}oxy)cyclobutyl]acetamide]	0.719
CNC(=O)[C@H]1CC[C@H](Oc2cc(=O)n(C)cc2-c2cc(C(C)(C)O)ccc2Oc2c(C)cc(F)cc2C)CC1 [Example 101, trans-4-({5-[2-(4-fluoro-2,6-dimethylphenoxy)-5-(2-hydroxypropan-2-yl)phenyl]-1-methyl-2-oxo-1,2-dihydropyridin-4-yl}oxy)-N-methylcyclohexane-1-carboxamide]	3.53
